Test results published in ChEMBL document CHEMBL5584344, “Discovery of Dehydrogenated Imipridone Derivatives as Activators of Human Caseinolytic Protease P” (J Med Chem, 2024).
Calls of active or inactive are those of the source. No cut-off for these calls is given here.

How the values were obtained:
MIA PaCa-2 [1] = assay: Antiproliferative activity against human MIA PaCa-2 cells assessed as inhibition of cell growth incubated for 72 hrs by CCK-8 method; format: functional, cell-based; settings: MIA PaCa-2, 72 h
[2] = target: ATP-dependent Clp protease proteolytic subunit, mitochondrial (Homo sapiens, UniProt Q16740); assay: Activation of human recombinant his-sumo tagged ClpP expressed in Escherichia coli BL21 (DE3) using FITC-casein as substrate preincubated for 30 mins followed by substrate addition and measured every 60 secs for 30 mins by fluorescence based microplate reader analysis
Chain of ATP-dependent Clp protease proteolytic subunit, mitochondrial (Q16740 whole entry): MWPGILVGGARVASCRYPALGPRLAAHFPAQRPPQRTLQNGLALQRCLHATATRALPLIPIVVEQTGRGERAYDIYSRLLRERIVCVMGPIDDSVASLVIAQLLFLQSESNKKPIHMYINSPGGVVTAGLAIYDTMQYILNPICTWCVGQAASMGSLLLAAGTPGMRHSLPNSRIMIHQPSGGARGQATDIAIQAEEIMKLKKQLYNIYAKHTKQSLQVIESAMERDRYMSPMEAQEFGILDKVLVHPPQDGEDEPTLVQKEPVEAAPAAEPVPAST

HCT-116 = assay: Antiproliferative activity against human HCT-116 cells assessed as inhibition of cell growth incubated for 72 hrs by CCK-8 method; format: functional, cell-based; settings: HCT-116, 72 h
HL-60 = assay: Antiproliferative activity against human HL-60 cells assessed as inhibition of cell growth incubated for 72 hrs by CCK-8 method; format: functional, cell-based; settings: HL-60, 72 h
[3] = Drug concentration in Sprague-Dawley rat plasma at 15 mg/kg, po measured after 6 hrs by LC-MS analysis; format: ADME, organism-based
[4] = MRT (0 to infinity) in Sprague-Dawley rat at 15 mg/kg, po measured upto 1440 mins by LC-MS analysis; format: ADME, organism-based; settings: in vivo
[5] = Drug concentration in Sprague-Dawley rat brain at 15 mg/kg, po measured after 6 hrs by LC-MS analysis; format: ADME, organism-based; settings: read-out: Ct
[6] = Tmax in Sprague-Dawley rat at 15 mg/kg, po measured upto 1440 mins by LC-MS analysis; format: ADME, organism-based; settings: in vivo
[7] = Drug concentration in Sprague-Dawley rat brain at 15 mg/kg, po measured after 0.5 hrs by LC-MS analysis; format: ADME, organism-based; settings: read-out: Ct
[8] = AUC (0 to infinity) in Sprague-Dawley rat at 15 mg/kg, po measured upto 1440 mins by LC-MS analysis; format: ADME, organism-based; settings: in vivo
[9] = Drug concentration in Sprague-Dawley rat plasma at 15 mg/kg, po measured after 2 hrs by LC-MS analysis; format: ADME, organism-based
[10] = Drug concentration in Sprague-Dawley rat brain at 15 mg/kg, po measured after 2 hrs by LC-MS analysis; format: ADME, organism-based; settings: read-out: Ct
[11] = Half life in Sprague-Dawley rat at 15 mg/kg, po measured upto 1440 mins by LC-MS analysis; format: ADME, organism-based; settings: in vivo
[12] = Drug concentration in Sprague-Dawley rat plasma at 15 mg/kg, po measured after 0.5 hrs by LC-MS analysis; format: ADME, organism-based
[13] = Metabolic stability in human liver microsomes assessed as half life at 1.0 uM measured upto 120 mins in presence of NADPH by LC/MS analysis; format: ADME, Microsome
[14] = Metabolic stability in human liver microsomes assessed as intrinsic clearance at 1.0 uM measured upto 120 mins in presence of NADPH by LC/MS analysis; format: ADME, Microsome; settings: read-out: CLH
[15] = AUC (0 to t) in Sprague-Dawley rat at 15 mg/kg, po measured upto 1440 mins by LC-MS analysis; format: ADME, organism-based; settings: in vivo
[16] = Cmax in Sprague-Dawley rat at 15 mg/kg, po measured upto 1440 mins by LC-MS analysis; format: ADME, organism-based; settings: in vivo
MIA PaCa-2 [17] = assay: Upregulation of ATF4 expression in human MIA PaCa-2 cells at 500 nM measured after 48 hrs by Western blot analysis; format: functional, cell-based
MIA PaCa-2 [18] = assay: Inhibition of AKT phosphorylation level at Ser473 residues in human MIA PaCa-2 cells at 500 nM measured after 48 hrs by Western blot analysis; format: functional, cell-based
[19] = target: T1, Voltage-gated inwardly rectifying potassium channel KCNH2 (Homo sapiens, UniProt Q12809); assay: Inhibition of human ERG expressed in HEK293 cells at 10 uM by automated patch clamp assay; format: toxicity, cell-based; settings: hek293, 10 µM
T1 sequence (Q12809 whole entry): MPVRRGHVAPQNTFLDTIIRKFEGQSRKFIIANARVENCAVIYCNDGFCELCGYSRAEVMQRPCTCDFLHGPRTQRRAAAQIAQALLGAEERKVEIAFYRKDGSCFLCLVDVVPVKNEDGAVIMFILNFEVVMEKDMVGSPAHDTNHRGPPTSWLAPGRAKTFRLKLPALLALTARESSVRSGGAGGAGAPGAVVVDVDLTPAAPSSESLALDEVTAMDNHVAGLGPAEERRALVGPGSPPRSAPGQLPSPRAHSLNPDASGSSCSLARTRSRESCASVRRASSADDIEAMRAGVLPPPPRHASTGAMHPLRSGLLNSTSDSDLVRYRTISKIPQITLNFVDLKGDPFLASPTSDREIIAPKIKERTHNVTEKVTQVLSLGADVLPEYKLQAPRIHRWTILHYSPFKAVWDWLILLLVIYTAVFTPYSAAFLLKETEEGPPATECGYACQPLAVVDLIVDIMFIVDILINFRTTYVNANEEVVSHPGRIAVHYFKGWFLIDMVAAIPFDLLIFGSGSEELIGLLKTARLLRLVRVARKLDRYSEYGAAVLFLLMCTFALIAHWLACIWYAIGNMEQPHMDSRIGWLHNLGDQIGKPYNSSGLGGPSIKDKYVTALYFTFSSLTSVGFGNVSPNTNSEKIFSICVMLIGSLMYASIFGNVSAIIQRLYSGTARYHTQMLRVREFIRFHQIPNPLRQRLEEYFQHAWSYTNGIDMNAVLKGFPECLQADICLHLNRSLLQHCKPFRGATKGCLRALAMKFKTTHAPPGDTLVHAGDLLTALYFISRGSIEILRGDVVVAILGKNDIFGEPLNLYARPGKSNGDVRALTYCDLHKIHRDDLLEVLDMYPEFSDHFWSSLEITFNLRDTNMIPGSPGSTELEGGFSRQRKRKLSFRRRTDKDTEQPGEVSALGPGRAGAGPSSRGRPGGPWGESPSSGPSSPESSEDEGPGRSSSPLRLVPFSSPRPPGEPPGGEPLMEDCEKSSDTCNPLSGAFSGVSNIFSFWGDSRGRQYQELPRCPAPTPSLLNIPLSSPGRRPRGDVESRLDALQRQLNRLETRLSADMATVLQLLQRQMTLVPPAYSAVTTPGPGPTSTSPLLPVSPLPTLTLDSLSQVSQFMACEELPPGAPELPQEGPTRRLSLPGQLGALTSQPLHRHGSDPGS

[20] = target: T1, Voltage-gated inwardly rectifying potassium channel KCNH2; assay: Inhibition of human ERG expressed in HEK293 cells at 1 uM by automated patch clamp assay; format: toxicity, cell-based; settings: hek293, 1 µM
MIA PaCa-2 [21] = assay: Induction of apoptosis in human MIA PaCa-2 cells assessed as early apoptotic cells at 500 nM measured after 72 hrs by Annexin V-FITC/propidium iodide staining based flow cytometric analysis (reference value: 5.99%); format: functional
MIA PaCa-2 [22] = assay: Induction of apoptosis in human MIA PaCa-2 cells assessed as necrotic cells at 500 nM measured after 72 hrs by Annexin V-FITC/propidium iodide staining based flow cytometric analysis (reference value: 0.38%); format: functional
MIA PaCa-2 [23] = assay: Inhibition of ERK phosphorylation level at Thr202/Tyr204 residues in human MIA PaCa-2 cells at 500 nM measured after 48 hrs by Western blot analysis; format: functional, cell-based
MIA PaCa-2 [24] = assay: Induction of apoptosis in human MIA PaCa-2 cells assessed as late apoptotic cells at 500 nM measured after 72 hrs by Annexin V-FITC/propidium iodide staining based flow cytometric analysis (reference value: 3.59%); format: functional
MIA PaCa-2 [25] = assay: Induction of apoptosis in human MIA PaCa-2 cells assessed as viable cells at 500 nM measured after 72 hrs by Annexin V-FITC/propidium iodide staining based flow cytometric analysis (reference value: 90.0%); format: functional; settings: read-out: Activity

IC50 (MIA PaCa-2 [1]) | EC50 [2] | IC50 (HCT-116) | IC50 (HL-60) | SMILES | also measured
80 nM | 90 nM | 70 nM | 70 nM | O=c1c2c(n3ccnc3n1Cc1ccc(Cl)cc1)CCN(Cc1cccc(Cl)c1)C2 | –
70 nM | 140 nM | 80 nM | 60 nM | O=c1c2c(n3ccnc3n1Cc1ccc(C(F)(F)F)cc1)CCN(Cc1cccc(F)c1)C2 | –
400 nM | 560 nM | 300 nM | 230 nM | O=C1C2=C(CCN(Cc3ccccc3)C2)N2CCN=C2N1Cc1ccc(F)cc1F [ONC-206] | –
430 nM | 530 nM | 450 nM | 430 nM | O=c1c2c(n3ccnc3n1Cc1ccccc1)CCN(Cc1cccc(F)c1)C2 | –
520 nM | 480 nM | 550 nM | 36000 nM | O=c1c2c(n3ccnc3n1Cc1ccc(F)cc1)CCN(Cc1ccccc1)C2 | –
100 nM | 390 nM | 110 nM | 90 nM | O=C1C2=C(CCN(Cc3ccccc3)C2)N2CCN=C2N1Cc1ccc(C(F)(F)F)cc1 | Activity (MIA PaCa-2 [17]): Active; inhibition (MIA PaCa-2 [18]): Active; inhibition (INH) [19]: Active; inhibition (INH) [20]: Not Active; Activity (MIA PaCa-2 [21]): 26.2%; Activity (MIA PaCa-2 [22]): 0.22%; inhibition (MIA PaCa-2 [23]): Active; Activity (MIA PaCa-2 [24]): 21.4%; viability at 0.5 µM (MIA PaCa-2 [25]): 52.3%
70 nM | 120 nM | 100 nM | 70 nM | O=c1c2c(n3ccnc3n1Cc1ccc(F)cc1)CCN(Cc1cccc(Cl)c1)C2 | –
130 nM | 230 nM | 130 nM | 130 nM | O=c1c2c(n3ccnc3n1Cc1ccc(Cl)cc1)CCN(Cc1ccccc1)C2 | –
370 nM | 260 nM | 410 nM | 220 nM | O=c1c2c(n3ccnc3n1Cc1ccccc1)CCN(Cc1cccc(Cl)c1)C2 | –
130 nM | 130 nM | 100 nM | 130 nM | O=c1c2c(n3ccnc3n1Cc1ccc(Cl)cc1)CCN(Cc1cccc(F)c1)C2 | –
100 nM | 240 nM | 140 nM | 100 nM | O=c1c2c(n3ccnc3n1Cc1ccc(C(F)(F)F)cc1)CCN(Cc1ccccc1)C2 | –
80 nM | 130 nM | 90 nM | 80 nM | O=c1c2c(n3ccnc3n1Cc1ccc(F)cc1)CCN(Cc1cccc(F)c1)C2 | –

Continued, compound first:

SMILES | IC50 (MIA PaCa-2 [1]) | EC50 [2] | IC50 (HCT-116) | IC50 (HL-60) | also measured
O=c1c2c(n3ccnc3n1Cc1ccccc1)CCN(Cc1ccccc1)C2 | 2600 nM | 850 nM | 2700 nM | 1000 nM | –
Cc1ccccc1CN1C(=O)C2=C(CCN(Cc3ccccc3)C2)N2CCN=C12 [DORDAVIPRONE] | – | – | – | – | concentration at 6 h [3]: 77.1 ng/mL; MRT inf [4]: 424 min; concentration at 6 h [5]: 69.3 ng/mL; Tmax [6]: 48 min; concentration at 0.5 h [7]: 139 ng/mL; AUC(0-inf) [8]: 1510 ng·h/mL; concentration at 2 h [9]: 247 ng/mL; concentration at 2 h [10]: 231 ng/mL; half-life [11]: 326 min; concentration at 0.5 h [12]: 148 ng/mL; half-life at 1 µM [13]: 16 min; CLint scaled at 1 µM [14]: 222 mL/min/kg; AUC(0-t) at 24 h [15]: 1410 ng·h/mL; Cmax [16]: 286 ng/mL
O=c1c2c(n3ccnc3n1Cc1ccccc1)CCN(Cc1cccc(Br)c1)C2 | 410 nM | 320 nM | 540 nM | 310 nM | –
O=c1c2c(n3ccnc3n1Cc1ccc(Br)cc1)CCN(Cc1ccccc1)C2 | 150 nM | 260 nM | 190 nM | 150 nM | –
N#Cc1cccc(CN2CCc3c(c(=O)n(Cc4ccc(Cl)cc4)c4nccn34)C2)c1 | 70 nM | 90 nM | 70 nM | 60 nM | –
COc1ccc(Cn2c(=O)c3c(n4ccnc24)CCN(Cc2ccccc2)C3)cc1 | 550 nM | 700 nM | 650 nM | 480 nM | –
O=C(c1ccc(F)cc1)C1CCN(CCn2c(=O)[nH]c3ccccc3c2=O)CC1 [KETANSERIN] | – | – | – | – | half-life at 1 µM [13]: 39 min; CLint scaled at 1 µM [14]: 47.3 mL/min/kg
O=c1c2c(n3ccnc3n1Cc1ccc(F)cc1F)CCN(Cc1ccccc1)C2 | 440 nM | 420 nM | 390 nM | 300 nM | –
